Laboratory results from ChEMBL document CHEMBL5728228, “Inhibitors of cyclin-dependent kinases” (2021).

assay: Protein kinase assay (Condition B: Thiol-free Conditions): The IC50 profile of compounds was determined using one protein kinase in a customized, thiol free assay. […] Prior to testing, the 1×10−03 M stock solutions in column 2 of the master plates were subjected to a serial, semi-logarithmic dilution using 100% DMSO as a solvent. […] Column 1 and 7 were filled with 100% DMSO as controls. Subsequently, 2×10 microliter from each well of the serial diluted copy plates were aliquoted with a 96 channel pipettor into two identical sets of “compound dilution plates”. All plates were barcoded for automated identification and tracking purposes. […] All compounds were stored as powder until being solubilized in DMSO. Solubilized compounds were stored as 1×10−02 M/100% DMSO stock solutions. Prior to the assay process, 90 microliters of H2O were added to each well of a set of compound dilution plates. To minimize potential precipitation, the H2O was added to each plate only a few minutes before the transfer of the compound solutions into the assay plates. Each plate was shaken thoroughly, resulting in compound dilution plates with a final of 10% DMSO. For each assay, 5 microliters of solution from each well of the compound dilution plates/10% DMSO were transferred into the assay plate. The final volume of the assay was 50 μl. All compounds were tested at 10 final assay concentrations in the range from 1×10−05 M to 3×10−10 M, in singlicate. The final DMSO concentration in the reaction cocktails was 1% in all cases. A radiometric protein kinase assay (33PanQinase® Activity Assay) was used for measuring the kinase activity of the protein kinase. All kinase assays were performed in 96-well FlashPlates™ from PerkinElmer (Boston, Mass., USA) in a 50 microliter reaction volume. The reaction cocktail was pipetted in four steps in the following order: 20 microliter of assay buffer (standard buffer)·5 microliter of ATP solution (in H2O)·5 microliter of test compound (in 10% DMSO)·20 microliter enzyme/substrate mix. […] For all experiments labeled as “Thiol-free”, all glutathione was exchanged from protein preparations so as to be removed from the assay and final buffer conditions contained no thiol-containing reagents. This was done so there would be no interference with the key cysteines in the proteins of interest.

IC50 [nM]	SMILES
< 100	C=CC(=O)N(C)c1ccc(C(=O)N2CC[C@@H](Nc3ncc(Cl)c(OC)n3)C2)cc1
< 100	C=CC(=O)Nc1ccc(C(=O)N2CC[C@@H](Nc3cc(OC)c(Cl)cn3)C2)cc1
< 100	C=CC(=O)Nc1ccc(C(=O)N2CC[C@@H](Nc3ncc(Br)c(OC)n3)C2)cc1
< 100	C=CC(=O)Nc1ccc(C(=O)N2CC[C@@H](Nc3ncc(Cl)c(OC)n3)C2)cc1
< 100	CCC(=O)Nc1ccc(C(=O)N2CC[C@@H](Nc3ncc(Br)c(OC)n3)C2)cc1
< 100	C=CC(=O)Nc1ccc(C(=O)N2CC[C@@H](Nc3ncc(Br)cn3)C2)cc1

SMILES	IC50 [nM]
C=CC(=O)Nc1ccc(C(=O)N2CC[C@@H](Nc3ncc(Cl)c(OC)n3)C2)cc1C	< 100
